Test results as given in patent US20170088520A1, “DEUBIQUITINASE INHIBITORS” (PharmAkea, Inc., priority 2014, published 2017).

Legend:
Type in all cases: cell-based
[1] = molecular target: T1, DUB activity in cells (NCI-H929, Z138, MM.1S, A375) (Homo sapiens, UniProt Q93008); test: HA-Ubiquitin-Vinylsulfone (HA-Ub-VS) cell labeling assay; conditions: compound tested at 5 μM; HA-Ub-VS labeling of USP9x in cells
T1 construct: endogenous in cells; host or cells: NCI-H929, Z138, MM.1S, A375
Procedure: Example B-1: HA-Ubiqutin-Vinylsulfone (HA-Ub-VS) Cell Labeling
Inhibitition of DUB activity is measured in cells (NCI-H929, Z138, MM.1S, A375) using a hemaglutinin-ubiquitin-vinylsulfone (HA-Ub-VS) labeling assay. Briefly, 1-2×10^6 cells are plated in 12-well plates in 1 ml complete growth media and 250 μl of test compound in 0.5% dimethylsulfoxide (or DMSO control) is added to each well. Plates are incubated at 37° C., 5% CO2 for 2-6 hours before cells are harvested into eppendorf tubes, washed once in PBS and resuspended in 100 μl cold lysis buffer (50 mM Tris pH 8, 150 mM NaCl, 0.5% NP-40, 2 mM phenylmethylsulfonyl fluoride and complete protease inhibitor tablet). Resupended cells are frozen on dry ice, then thawed and incubated on ice for 15 minutes. Tubes are centrifuged for 10 minutes at 14,000 rpm at 4° C. and the cleared supernatants transferred to clean tubes. […] The samples are incubated 15-60 min at 37° C. before the addition of SDS gel loading buffer. Proteins are separated by SDS-PAGE, transferred to nitrocellulose and the blot probed with anti-HA antibody and anti-β-actin antibodies. The HA and β-actin antibodies are detected using secondary antibodies coupled to IRdye 800 or IRdye 680 and visualized and quantitated using the LiCor Odyssey machine.
(§1) The following compounds were tested in the above assays at 5 μM: […]

[2] = system: Mcl-1 expression in cells (NCI-H929, Z138, MM.1S, A-375); test: Analysis of Mcl-1 expression by Western blotting; conditions: compound tested at 5 μM; Western blot
Procedure: (§2) Example B-2: Analysis of Md-1 Expression and PARP Cleavage
(§3) The ability of test compounds to decrease expression of the tumor promoting protein, Mcl-1, and to induce the inactivation/cleavage of the PARP protein is evaluated in cells (NCI-H929, Z138, MM.1S, A-375) by Western blotting. Cells are plated and treated as described in the HA-Ub-VS cell labeling assay (see above). A portion of the cleared lysate (15-50 μl) is run on an SDS-polyacrylamide gel to separate proteins and then transferred to nitrocellulose. After transfer to nitrocellulose, the proteins are detected by probing the blot with anti-Mcl-1 and anti-PARP antibodies followed by secondary antibodies coupled to IRdye 800 and IRdye 680 and visualization and quantitation using a LiCor Odyssey machine. Activity of the test compound is identified as a significant decrease in Mcl-1 expression relative to the vehicle treated cells and to the appearance of a cleaved fragment of PARP relative to the vehicle-treated cells.
as §1

[3] = system: PARP cleavage in cells (NCI-H929, Z138, MM.1S, A-375); test: Analysis of PARP cleavage by Western blotting; conditions: compound tested at 5 μM; Western blot
Procedure: as §2, §3, §1

T1 sequence (Q93008 whole entry): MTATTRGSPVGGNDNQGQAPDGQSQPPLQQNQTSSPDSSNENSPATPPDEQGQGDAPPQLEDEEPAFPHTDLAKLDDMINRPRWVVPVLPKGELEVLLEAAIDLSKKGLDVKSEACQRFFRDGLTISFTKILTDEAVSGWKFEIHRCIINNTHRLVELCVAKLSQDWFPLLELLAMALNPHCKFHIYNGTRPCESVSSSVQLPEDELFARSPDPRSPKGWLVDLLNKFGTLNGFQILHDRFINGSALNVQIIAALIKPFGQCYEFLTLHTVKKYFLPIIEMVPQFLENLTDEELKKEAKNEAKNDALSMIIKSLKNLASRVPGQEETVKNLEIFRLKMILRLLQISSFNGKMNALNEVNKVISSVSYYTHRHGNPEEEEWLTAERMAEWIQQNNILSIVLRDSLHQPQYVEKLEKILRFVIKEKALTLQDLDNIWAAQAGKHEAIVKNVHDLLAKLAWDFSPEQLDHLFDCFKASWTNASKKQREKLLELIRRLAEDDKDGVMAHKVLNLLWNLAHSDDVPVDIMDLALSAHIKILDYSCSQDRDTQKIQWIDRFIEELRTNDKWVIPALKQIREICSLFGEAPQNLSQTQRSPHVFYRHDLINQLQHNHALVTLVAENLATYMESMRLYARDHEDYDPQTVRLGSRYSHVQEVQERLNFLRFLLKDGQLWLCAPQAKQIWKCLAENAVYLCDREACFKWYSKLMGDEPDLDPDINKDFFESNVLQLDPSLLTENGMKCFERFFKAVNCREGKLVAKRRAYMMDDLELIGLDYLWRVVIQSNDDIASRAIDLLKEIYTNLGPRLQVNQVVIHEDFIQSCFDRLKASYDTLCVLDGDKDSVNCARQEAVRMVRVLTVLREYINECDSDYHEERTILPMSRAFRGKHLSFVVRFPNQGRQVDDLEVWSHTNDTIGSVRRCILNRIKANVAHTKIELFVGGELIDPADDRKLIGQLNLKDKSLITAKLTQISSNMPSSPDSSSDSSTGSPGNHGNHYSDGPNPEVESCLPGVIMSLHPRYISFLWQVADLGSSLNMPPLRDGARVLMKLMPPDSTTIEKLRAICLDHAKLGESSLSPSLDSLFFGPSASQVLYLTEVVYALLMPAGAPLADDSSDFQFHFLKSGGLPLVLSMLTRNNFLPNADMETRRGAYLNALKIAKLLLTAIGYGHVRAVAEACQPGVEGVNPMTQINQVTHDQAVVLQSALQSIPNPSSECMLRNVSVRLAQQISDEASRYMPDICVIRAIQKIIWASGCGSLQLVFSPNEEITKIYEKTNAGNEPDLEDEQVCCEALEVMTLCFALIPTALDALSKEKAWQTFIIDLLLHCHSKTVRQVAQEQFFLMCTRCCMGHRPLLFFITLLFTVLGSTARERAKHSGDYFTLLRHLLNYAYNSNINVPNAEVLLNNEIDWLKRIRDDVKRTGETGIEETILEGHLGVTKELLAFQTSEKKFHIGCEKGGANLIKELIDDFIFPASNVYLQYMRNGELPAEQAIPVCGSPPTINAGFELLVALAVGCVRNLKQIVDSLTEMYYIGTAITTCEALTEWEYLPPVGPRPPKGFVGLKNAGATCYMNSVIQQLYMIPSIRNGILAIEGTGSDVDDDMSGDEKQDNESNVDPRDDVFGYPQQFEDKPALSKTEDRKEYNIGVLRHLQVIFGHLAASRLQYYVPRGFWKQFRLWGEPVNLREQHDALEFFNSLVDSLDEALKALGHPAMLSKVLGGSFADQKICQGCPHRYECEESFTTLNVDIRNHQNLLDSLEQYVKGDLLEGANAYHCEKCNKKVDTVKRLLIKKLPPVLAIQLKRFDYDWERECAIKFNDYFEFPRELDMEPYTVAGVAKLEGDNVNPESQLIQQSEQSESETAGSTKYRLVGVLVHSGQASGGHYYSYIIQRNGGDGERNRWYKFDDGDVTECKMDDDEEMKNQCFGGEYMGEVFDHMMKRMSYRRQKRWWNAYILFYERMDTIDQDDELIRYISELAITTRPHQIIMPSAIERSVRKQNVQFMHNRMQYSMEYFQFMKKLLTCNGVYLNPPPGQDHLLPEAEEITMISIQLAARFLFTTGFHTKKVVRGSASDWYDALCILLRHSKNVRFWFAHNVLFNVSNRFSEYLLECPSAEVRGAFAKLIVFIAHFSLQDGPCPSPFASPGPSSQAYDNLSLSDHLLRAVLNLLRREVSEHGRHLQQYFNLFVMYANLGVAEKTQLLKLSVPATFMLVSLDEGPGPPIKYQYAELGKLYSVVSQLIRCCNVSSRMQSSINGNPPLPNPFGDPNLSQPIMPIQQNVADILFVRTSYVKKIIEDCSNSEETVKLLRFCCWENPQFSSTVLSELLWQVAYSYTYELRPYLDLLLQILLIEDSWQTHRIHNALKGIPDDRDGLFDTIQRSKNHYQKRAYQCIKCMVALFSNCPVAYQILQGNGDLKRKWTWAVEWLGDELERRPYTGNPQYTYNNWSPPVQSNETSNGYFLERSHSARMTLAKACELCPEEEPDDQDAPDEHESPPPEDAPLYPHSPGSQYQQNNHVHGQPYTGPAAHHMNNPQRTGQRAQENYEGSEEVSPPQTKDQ

SMILES	inhibition at 5 µM [1] [%]	inhibition at 5 µM [2] [%]	PARP cleavage % Inhibition [3]
COc1ccc(C2(NC(=O)/C(C#N)=C/c3cccc(Br)n3)CCCC2)cc1 [Compound 16, (E)-3-(6-Bromopyridin-2-yl)-2-cyano-N-(1-(4-methoxyphenyl)cyclopentyl)acrylamide]	50 to 75	50 to 75	A (A is ≧75% inhibition)
N#C/C(=C\c1cccc(Br)n1)C(=O)NC1(c2ccccc2)CCCCC1 [Compound 17, (E)-3-(6-Bromopyridin-2-yl)-2-cyano-N-(1-phenylcyclohexyl)acrylamide]	25 to 50	50 to 75	A (A is ≧75% inhibition)
N#C/C(=C\c1cccc(Br)n1)C(=O)NC1(c2ccccc2)CCOCC1 [Compound 18, (E)-3-(6-Bromopyridin-2-yl)-2-cyano-N-(4-phenyltetrahydro-2H-pyran-4-yl)acrylamide]	50 to 75	25 to 50	B (B is 50% to 75% inhibition)
N#C/C(=C\c1ncc(Br)cc1Br)C(=O)NC1(c2ccc(C(F)(F)F)cc2)CCCC1 [Compound 19, (E)-2-Cyano-3-(3,5-dibromopyridin-2-yl)-N-(1-(4-(trifluoromethyl)phenyl)cyclopentyl) acrylamide]	≥ 75	≥ 75	A (A is ≧75% inhibition)
N#C/C(=C\c1ncc(Br)cc1Br)C(=O)NC1(c2cccc(Cl)c2)CCCC1 [Compound 20, (E)-N-(1-(3-Chlorophenyl)cyclopentyl)-2-cyano-3-(3,5-dibromopyridin-2-yl)acrylamide]	≥ 75	≥ 75	A (A is ≧75% inhibition)
N#C/C(=C\c1ncc(Br)cc1Br)C(=O)NC1(c2ccc(F)cc2)CCCC1 [Compound 21, (E)-2-Cyano-3-(3,5-dibromopyridin-2-yl)-N-(1-(4-fluorophenyl)cyclopentyl)acrylamide]	≥ 75	≥ 75	A (A is ≧75% inhibition)
N#C/C(=C\c1ncc(Br)cc1Br)C(=O)NC1(c2ccc(Cl)cc2)CCCC1 [Compound 22, (E)-N-(1-(4-Chlorophenyl)cyclopentyl)-2-cyano-3-(3,5-dibromopyridin-2-yl)acrylamide]	≥ 75	≥ 75	A (A is ≧75% inhibition)
N#C/C(=C\c1ncc(Br)cc1Br)C(=O)NC1(c2ccccc2)CCCCC1 [Compound 23, (E)-2-Cyano-3-(3,5-dibromopyridin-2-yl)-N-(1-phenylcyclohexyl)acrylamide]	≥ 75	≥ 75	A (A is ≧75% inhibition)
N#C/C(=C\c1ncc(Br)cc1Br)C(=O)NC1(c2ccccc2)CCOCC1 [Compound 24, (E)-2-Cyano-3-(3,5-dibromopyridin-2-yl)-N-(4-phenyltetrahydro-2H-pyran-4-yl)acrylamide]	≥ 75	50 to 75	A (A is ≧75% inhibition)
N#C/C(=C\c1ncc(Br)cc1Br)C(=O)NC1(c2ccccc2)CCCCCC1 [Compound 25, (E)-2-Cyano-3-(3,5-dibromopyridin-2-yl)-N-(1-phenylcycloheptyl)acrylamide]	≥ 75	≥ 75	A (A is ≧75% inhibition)
Cc1cccc(C2(NC(=O)/C(C#N)=C/c3ncc(Br)cc3Br)CCCC2)c1 [Compound 26, (E)-2-cyano-3-(3,5-dibromopyridin-2-yl)-N-(1-(m-tolyl)cyclopentyl)acrylamide]	≥ 75	≥ 75	A (A is ≧75% inhibition)
CC(C)(C)c1ccc(C2(NC(=O)/C(C#N)=C/c3ncc(Br)cc3Br)CCCC2)cc1 [Compound 27, (E)-N-(1-(4-(tert-butyl)phenyl)cyclopentyl)-2-cyano-3-(3,5-dibromopyridin-2-yl)acrylamide]	≥ 75	≥ 75	A (A is ≧75% inhibition)
N#C/C(=C\c1cc(Br)ccn1)C(=O)NC1(c2ccccc2)CCCC1 [Compound 28, (E)-3-(4-bromopyridin-2-yl)-2-cyano-N-(1-phenylcyclopentyl)acrylamide]	< 25	< 25	D (D is <25% inhibition)
N#C/C(=C\c1ccc(Br)cn1)C(=O)NC1(c2ccccc2)CCCC1 [Compound 29, (E)-3-(5-bromopyridin-2-yl)-2-cyano-N-(1-phenylcyclopentyl)acrylamide]	50 to 75	< 25	A (A is ≧75% inhibition)
N#C/C(=C\c1cccc(-c2cccnc2)n1)C(=O)NC1(c2ccccc2)CCCC1 [Compound 30, (E)-3-([2,3′-bipyridin]-6-yl)-2-cyano-N-(1-phenylcyclopentyl)acrylamide]	25 to 50	25 to 50	A (A is ≧75% inhibition)
CCOC(=O)c1ccc(-c2cccc(/C=C(\C#N)C(=O)NC3(c4ccccc4)CCCC3)n2)cc1 [Compound 31, (E)-ethyl 4-(6-(2-cyano-3-oxo-3-((1-phenylcyclopentyl)amino)prop-1-en-1-yl)pyridin-2-yl)benzoate]	25 to 50	< 25	B (B is 50% to 75% inhibition)
CCOC(=O)c1ccc(-c2ccc(C3(NC(=O)/C(C#N)=C/c4ncc(Br)cc4Br)CCCC3)cc2)cc1 [Compound 32, (E)-ethyl 4′-(1-(2-cyano-3-(3,5-dibromopyridin-2-yl)acrylamido)cyclopentyl)-[1,1′-biphenyl]-4-carboxylate]	< 25	< 25	D (D is <25% inhibition)
COC(=O)c1cncc(-c2cccc(/C=C(\C#N)C(=O)NC3(c4ccccc4)CCCC3)n2)c1 [Compound 33]	50 to 75	≥ 75	A (A is ≧75% inhibition)
COC(=O)c1cccc(-c2cccc(/C=C(\C#N)C(=O)NC3(c4ccccc4)CCCC3)n2)c1 [Compound 34]	50 to 75	25 to 50	A (A is ≧75% inhibition)
N#C/C(=C\c1cccc(-c2ccc(OCC(=O)O)cc2)n1)C(=O)NC1(c2ccccc2)CCCC1 [Compound 36]	< 25	< 25	D (D is <25% inhibition)
COC(=O)c1ccc(-c2ccc(C3(NC(=O)/C(C#N)=C/c4ncc(Br)cc4Br)CCCC3)cc2)cn1 [Compound 37, (E)-methyl 5-(4-(1-(2-cyano-3-(3,5-dibromopyridin-2-yl)acrylamido)cyclopentyl)phenyl)picolinate]	50 to 75	50 to 75	B (B is 50% to 75% inhibition)
COC(=O)c1cccc(-c2ccc(C3(NC(=O)/C(C#N)=C/c4ncc(Br)cc4Br)CCCC3)cc2)c1 [Compound 38, (E)-methyl 4′-(1-(2-cyano-3-(3,5-dibromopyridin-2-yl)acrylamido)cyclopentyl)-[1,1′-biphenyl]-3-carboxylate]	50 to 75	50 to 75	A (A is ≧75% inhibition)
